The record followed here is patent publication US20240067631A1, “PYRAZOLE DERIVATIVES USEFUL AS NAMPT MODULATORS” (Cytokinetics, Inc., priority 2020, published 2024).

The experiment has as its target human NAMPT (Homo sapiens (Human), UniProt P43490). Nature of the experiment: Human recombinant enzyme assay (NMN fluorescence biochemical assay). As to conditions: 6 nM human NAMPT, 60 min; for AC1.4 Human: concentration of compound that generates 40% higher activity over basal; for EC50: concentration that gives half-maximal activation. In a few lines: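 Recombinant human NAMPT (6 nM) with 2.5 mM ATP, […] PRPP and […] nicotinamide in HEPES pH 7.2 with DTT, CHAPS, NaCl, MgCl2; 60 min at ambient temperature. NMN derivatised with acetophenone/KOH/formic acid, fluorescence read at 355/460 nm. AC1.4 (40% above basal) and EC50 reported.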

Each structure is given as a SMILES string.

human NAMPT, sequence (P43490 whole entry): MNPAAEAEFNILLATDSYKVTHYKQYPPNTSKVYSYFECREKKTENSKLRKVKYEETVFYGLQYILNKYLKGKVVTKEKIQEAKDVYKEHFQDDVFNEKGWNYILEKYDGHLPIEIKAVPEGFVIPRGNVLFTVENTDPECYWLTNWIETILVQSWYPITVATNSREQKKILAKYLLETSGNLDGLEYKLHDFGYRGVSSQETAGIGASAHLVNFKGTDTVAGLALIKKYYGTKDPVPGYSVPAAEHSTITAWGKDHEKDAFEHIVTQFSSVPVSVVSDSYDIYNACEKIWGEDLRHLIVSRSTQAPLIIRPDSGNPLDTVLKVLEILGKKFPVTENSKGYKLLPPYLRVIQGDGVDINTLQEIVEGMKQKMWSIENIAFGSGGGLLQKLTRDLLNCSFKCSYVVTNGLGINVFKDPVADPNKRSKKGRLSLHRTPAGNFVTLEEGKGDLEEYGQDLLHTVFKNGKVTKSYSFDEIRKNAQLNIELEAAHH

What is called EC50 is the concentration giving half of the maximal effect. `Cc1nc(C(=O)N2CCOCC2C(F)(F)F)nc(NCCc2cn[nH]c2)c1C` (centres unmarked) [Compound 138, (4-((2-(1H-pyrazol-4-y)ethyl)amino)-5,6-dimethylpyrimidin-2-yl)(3-(trifluoromethyl)morpholino)methanone]: the “AC1.4 Human” value came to 4.125 µM and the half-maximal effective concentration (EC50) stood at 30.7 µM.
In the same order, the values of `Cc1nc(C(=O)N[C@H](C)c2ccco2)nc(NCCc2cn[nH]c2)c1C` [Compound 75, (R)-4-((2-(1H-pyrazol-4-yl)ethyl)amino)-N-(1-(furan-2-yl)ethyl)-5,6-dimethylpyrimidine-2-carboxamide] are 0.7725 µM and 2.62 µM.
In the case of `Cc1nc(C(=O)N[C@H](C)c2cc3ccccc3o2)nc(NCCc2cn[nH]c2)c1C` [Compound 112, (R)-4-((2-(1H-pyrazol-4-yl)ethyl)amino)-N-(1-(benzofuran-2-yl)ethyl)-5,6-dimethylpyrimidine-2-carboxamide], the “AC1.4 Human” value worked out at 2.084 µM and the EC50 stood at 2.97 µM.
For `Cc1nc(C(=O)NC(c2cccc(F)c2)c2ccccn2)nc(NCCc2cn[nH]c2)c1C` (centres unmarked) [Compound 46, 4-((2-(1H-pyrazol-4-yl)ethyl)amino)-N-((3-fluorophenyl)(pyridin-2-yl)methyl)-5,6-dimethylpyrimidine-2-carboxamide], in that order: 0.2845 µM and 2.35 µM.
In the same order, the values of `Cc1nc(C(=O)N[C@H]2C[C@@H](c3ccccc3)C2)nc(NCCc2cn[nH]c2)c1C` [Compound 135, 4-((2-(1H-pyrazol-4-yl)ethyl)amino)-5,6-dimethyl-N-((1s,3s)-3-phenylcyclobutyl)pyrimidine-2-carboxamide] are 3.7335 µM and 17.5 µM.
With `Cc1nc(C(=O)NC2(c3ccccn3)CCC2)nc(NCCc2cn[nH]c2)c1C` [Compound 145, 4-((2-(1H-pyrazol-4-yl)ethyl)amino)-5,6-dimethyl-N-(1-(pyridin-2-yl)cyclobutyl)pyrimidine-2-carboxamide], the “AC1.4 Human” value turned out to be 4.9555 µM and the 50% effective concentration (EC50) worked out at 22.4 µM.
Take `Cc1nc(C(=O)N2CCOC[C@@H]2c2ccccc2)nc(NCCc2cn[nH]c2)c1C` [Compound 63, (S)-(4-((2-(1H-pyrazol-4-yl)ethyl)amino)-5,6-dimethylpyrimidin-2-yl)(3-phenylmorpholino)methanone]: the “AC1.4 Human” value is 0.4315 µM and the EC50 turned out to be 2.29 µM.
In the same order, the values of `Cc1nc(C(=O)N2CC(O)(c3ccccc3F)C2)nc(NCCc2cn[nH]c2)c1C` [Compound 77, (4-((2-(1H-pyrazol-4-yl)ethyl)amino)-5,6-dimethylpyrimidin-2-yl)(3-(2-fluorophenyl)-3-hydroxyazetidin-1-yl)methanone] are 0.8835 µM and 13.7 µM.
In the same order, the values of `Cc1nc(C(=O)N2CC[C@@H](c3ccccc3)C2)nc(NCCc2cn[nH]c2)c1C` [Compound 61, (S)-(4-((2-(1H-pyrazol-4-yl)ethyl)amino)-5,6-dimethylpyrimidin-2-yl)(3-phenylpyrrolidin-1-yl)methanone] are 0.409 µM and 2.11 µM.
For `Cc1nc(C(=O)N2CCC2c2cccc(F)c2)nc(NCCc2cn[nH]c2)c1C` (centres unmarked) [Compound 115, (4-((2-(1H-pyrazol-4-yl)ethyl)amino)-5,6-dimethylpyrimidin-2-yl)(2-(3-fluorophenyl)azetidin-1-yl)methanone], in that order: 2.136 µM and 10.7 µM.
Regarding `Cc1nc(C(=O)NCc2ccccn2)nc(NCCc2cn[nH]c2)c1C` [Compound 93, 4-((2-(1H-pyrazol-4-yl)ethyl)amino)-5,6-dimethyl-N-(pyridin-2-ylmethyl)pyrimidine-2-carboxamide], the “AC1.4 Human” value turned out to be 1.244 µM and the EC50 is 14.9 µM.
In the same order, the values of `Cc1nc(C(=O)N2CCOC[C@H]2Cc2ccccc2)nc(NCCc2cn[nH]c2)c1C` [Compound 64, (R)-(4-((2-(1H-pyrazol-4-yl)ethyl)amino)-5,6-dimethylpyrimidin-2-yl)(3-benzylmorpholino)methanone] are 0.458 µM and 2.16 µM.
For `Cc1nc(C(N)=O)nc(N(CCc2ccccc2)CCc2cn[nH]c2)c1C` [Compound 1, 4-((2-(1H-pyrazol-4-yl)ethyl)(phenethyl)amino)-5,6-dimethylpyrimidine-2-carboxamide], in that order: 0.003 µM and 0.131 µM.
With `Cc1nc(C(=O)N2CC(O)(c3cccc(F)c3F)C2)nc(NCCc2cn[nH]c2)c1C` [Compound 51, (4-((2-(1H-pyrazol-4-yl)ethyl)amino)-5,6-dimethylpyrimidin-2-yl)(3-(2,3-difluorophenyl)-3-hydroxyazetidin-1-yl)methanone], the “AC1.4 Human” value worked out at 0.327 µM and the EC50 turned out to be 1.88 µM.
Take `Cc1nc(C(=O)NCCc2ccccc2)nc(NCCc2cn[nH]c2)c1C` [Compound 50, 4-((2-(1H-pyrazol-4-yl)ethyl)amino)-5,6-dimethyl-N-phenethylpyrimidine-2-carboxamide]: the “AC1.4 Human” value was 0.311 µM and the EC50 was 2.08 µM.
For `Cc1nc(C(=O)NCCc2cncc(F)c2)nc(NCCc2cn[nH]c2)c1C` [Compound 129, 4-((2-(1H-pyrazol-4-yl)ethyl)amino)-N-(2-(5-fluoropyridin-3-yl)ethyl)-5,6-dimethylpyrimidine-2-carboxamide], in that order: 3.249 µM and 21.3 µM.
For `Cc1nc(C(=O)NCc2cccs2)nc(NCCc2cn[nH]c2)c1C` [Compound 19, 4-((2-(1H-pyrazol-4-yl)ethyl)amino)-5,6-dimethyl-N-(thiophen-2-ylmethyl)pyrimidine-2-carboxamide], the “AC1.4 Human” value stood at 0.075 µM and the EC50 came out at 0.499 µM.
For the compound `CCC1(O)CN(C(=O)c2nc(C)c(C)c(NCCc3cn[nH]c3)n2)C1` [Compound 107, (4-((2-(1H-pyrazol-4-yl)ethyl)amino)-5,6-dimethylpyrimidin-2-yl)(3-ethyl-3-hydroxyazetidin-1-yl)methanone], the “AC1.4 Human” value amounted to 2.339 µM and the 50% effective concentration (EC50) worked out at 14 µM.
In the same order, the values of `Cc1nc(C(=O)N2CCC(F)(F)CC2c2ccccc2)nc(NCCc2cn[nH]c2)c1C` (centres unmarked) [Compound 28, (4-((2-(1H-pyrazol-4-yl)ethyl)amino)-5,6-dimethylpyrimidin-2-yl)(4,4-difluoro-2-phenylpiperidin-1-yl)methanone] are 0.144 µM and 1.36 µM.
With `Cc1nc(C(=O)N2CCC[C@@H]2c2cccc(F)c2)nc(NCCc2cn[nH]c2)c1Cl` [Compound 148, (R)-(4-((2-(1H-pyrazol-4-yl)ethyl)amino)-5-chloro-6-methylpyrimidin-2-yl)(2-(3-fluorophenyl)pyrrolidin-1-yl)methanone], the “AC1.4 Human” value was more than 31 µM.
Take `Cc1nc(C(=O)N2CC3(CCC3)C2)nc(NCCc2cn[nH]c2)c1C` [Compound 123, (4-((2-(1H-pyrazol-4-yl)ethyl)amino)-5,6-dimethylpyrimidin-2-yl)(2-azaspiro[3.3]heptan-2-yl)methanone]: the “AC1.4 Human” value was 2.581 µM and the EC50 turned out to be 26.4 µM.
